Experiments:
[1] = tested on: Alicyclobacillus acidocaldarius maltose uptake; conditions: cited from earlier work
[2] = biological target: Agrobacterium tumefaciens ThuE (AtThuE) sucrose binding protein carrying N192D (SEQ ID NO: 2) fused between ECFP and EYFP, sensor FLIPsuc4μ (FLIPsuc), wt (indic (Agrobacterium fabrum, UniProt A9CF11, N212D)); test: in vitro FRET titration of purified sensor FLIPsuc4μ; conditions: for recognition (binding): even after addition of higher sugar concentrations (50× Kd); for Δratio (maximum ratio change): in vitro, no binding to saturated binding; for binding (extent relative to sucrose): 5× Kd (20 μM), FRET micro plate assay (FIG. 4); for affinity relative to that for sucrose: FIG. 1C titration curves
Source text: (§1) Because the maltose/trehalose/sucrose binding protein from Agrobacterium tumefaciens (AtThuE) is 78.9% identical over predicted mature region of the SmThuE protein (SEQ ID NO: 2) and is 21.4% homologous to the maltose binding protein from E. coli (malE), we attempted to clone the AtThuE binding protein. To isolate the gene, a PCR product from genomic Agrobacterium tumefaciens (strain C58C1) DNA encoding mature AtThuE without signal sequence and stop codon was cloned into the KpnI site between ECFP and EYFP genes (FIG. 1A). The chimeric gene was inserted into pRSET (Invitrogen) and transferred to E. coli BL21(DE3)Gold (Stratagene). […] It is unknown whether this difference corresponds to a mutation or natural variation. Since N192D was outside the binding pocket and since AtThuE carrying the mutation was functional as a sugar sensor (see Table 1), all further experiments were carried out with the nanosensor named FLIPsuc4μ carrying the mutation N192D. FLIPsuc proteins were extracted from BL21(DE3)gold and purified as described (Fehr et al. 2002).
(§2) A DNA fragment encoding the mature Agrobacterium tumefaciens maltose/trehalose/sucrose BP protein was fused between the ECFP and EYFP sequences as described above. The chimeric gene was expressed in E. coli and the protein product purified and assayed for substrate specificity.
(§3) Substrate titration curves and substrate specificity analysis were performed on Safire (Tecan) fluorometer. ECFP was excited at 433 nm and emission was set to 485 nm and 528 nm for ECFP and EYFP, respectively (bandwidth 12 nm). All in vitro analyses were performed in 20 mM MOPS buffer at pH 7. FRET was determined as EYFP-ECFP emission intensity ratio. Using the change in ratio upon ligand binding, binding constants (Kd) were determined by fitting substrate titration curves to equation 1: S=1−(r−rmin)(rmax−rmin)=[S]b/[P]t=n[S]/(Kd+[S]), where [S] is substrate concentration; [S]b, concentration of bound substrate; n, number of binding sites; [P]t, total concentration of binding protein; r, ratio; rmin, minimum ratio in absence of ligand; rmax, maximum ratio at saturation. Hill coefficients were determined using Hill equation 2: S=(n[S]^n)/(Kd+[S]^n).
(§4) SmThuE is mainly functioning as a trehalose and maltose binding protein. Sucrose is thought to be transported to a lesser extent. FLIPsuc4μ was therefore incubated with trehalose, maltose and other related sugars to test for its binding capacities. Substrate-induced conformational changes were measured using FRET in micro plate assays. […] Maltose and glucose were chosen for further analysis of FLIPsuc4μ and its mutants since they are important sugars in plants and might therefore interfere with sucrose measurements in vivo. […] Most mutants show similar patterns with higher affinity for maltose than sucrose. FLIPsuc-10μ is the most significant example with an 83 times higher affinity for maltose than sucrose (Table 1). The D115 mutants both show the highest affinity for maltose compared to sucrose and […], but to a different extent.

[3] = biological target: Agrobacterium tumefaciens AtThuE sensor FLIPsuc4μ variant D115N (Agrobacterium fabrum, UniProt A9CF11, D135N/N212D); test: FRET ratio change of D115N mutant; assay type: binding
Protocol: as §3
To expand the dynamic range of the sucrose sensor, site directed mutagenesis was used as described above to lower the binding affinity of the sucrose binding domain. Affinity mutants of FLIPsuc4μ were generated. Alignment together with modeling of AtThuE with maltose binding proteins that have been crystallized helped predict residues important for ligand binding. […]

[4] = biological target: Agrobacterium tumefaciens ThuE (AtThuE) sucrose binding protein carrying N192D (SEQ ID NO: 2) fused between ECFP and EYFP, sensor FLIPsuc4μ (FLIPsuc), wt (indicator SEQ ID NO: 4) (Agrobacterium fabrum, UniProt A9CF11, N212D); test: in vitro FRET titration of purified sensor FLIPsuc4μ
Source text: as §1, §2, §3, §4

[5] = biological target: Agrobacterium tumefaciens AtThuE sensor FLIPsuc4μ variant W283A (FLIPsuc88μ, FLIPsucW283A) (Agrobacterium fabrum, UniProt A9CF11, N212D/W303A); test: in vitro FRET titration of affinity mutant FLIPsuc88μ; assay type: binding; conditions: for Kd / Δratio: in vitro; for Δratio: no binding to saturated binding
Protocol: as §3
(§5) To expand the dynamic range of the sucrose sensor, site directed mutagenesis was used as described above to lower the binding affinity of the sucrose binding domain. Affinity mutants of FLIPsuc4μ were generated. Alignment together with modeling of AtThuE with maltose binding proteins that have been crystallized helped predict residues important for ligand binding. […] Mutant forms carrying substitutions F113A, D115A, D115E, D115N, W244A, Y246A and W283A were generated using Kunkel mutagenesis (Kunkel et al. 1991) in the mutant background of FLIPsuc41t. The affinity mutants were designated as FLIPsucF113A, FLIPsucW283A, FLIPsucD115A, FLIPsucD115E, FLIPsucY246A, and FLIPsucW244A. All six mutants have lower affinities for sucrose than that of FLIPsuc4μ, with a Kd value varying from 10 μM to the higher mM range (Table 1). The starting ratio between EYFP and ECFP ranges from 1.4 to close to 2.0, which is also similar to what has been seen in other sugar sensors (FLIPmal, FLIPglu and FLIPrib). Introducing substitution F113A into the ThuE moiety of FLIPsuc4μ produced FLIPsuc10μ, which has a binding constant (Kd) of 10 μM for sucrose, thus providing a range for sucrose quantification between at least 1 μM and 90 μM (Table 1).

[6] = biological target: Agrobacterium tumefaciens AtThuE sensor FLIPsucW283A with linker shortened by 18 amino acids (FLIPsucW283A-18AA, FLIPThuEW283A-18AA) (Agrobacterium fabrum, UniProt A9CF11, N212D/W303A); test: FRET ratio change of short-linker sensor FLIPsucW283A-18AA; assay type: binding; conditions: FIG. 3
Protocol: as §3
In an attempt to improve the delta ratio of the sucrose sensor the sensor containing the W283A mutation was cloned into a construct with a shorter linker sequence between the GFP variants and the binding protein. Deuschle et al. (2005) has shown that the length of the linker sequence plays a major role in the maximum change in ratio. A construct corresponding to FLIPglu600μΔ5 was constructed which gives a sucrose sensor whose linker was shortened by 18 amino acids (FLIPsucW283A-18AA). […]

[7] = biological target: Agrobacterium tumefaciens AtThuE sensor FLIPsuc4μ variant W244A (FLIPsuc46m, FLIPsucW244A) (Agrobacterium fabrum, UniProt A9CF11, N212D/W264A); test: in vitro FRET titration of affinity mutant FLIPsuc46m; assay type: binding; conditions: for Δratio: in vitro, no binding to saturated binding
Protocol: as §3, §5

[8] = biological target: Agrobacterium tumefaciens AtThuE sensor FLIPsuc4μ variant Y246A (FLIPsuc15m, FLIPsucY246A) (Agrobacterium fabrum, UniProt A9CF11, N212D/Y266A); test: in vitro FRET titration of affinity mutant FLIPsuc15m; assay type: binding; conditions: for Δratio: in vitro, no binding to saturated binding
Protocol: as §3, §5

[9] = biological target: Agrobacterium tumefaciens AtThuE sensor FLIPsuc4μ variant F113A (FLIPsuc10μ, FLIPsucF113A) (Agrobacterium fabrum, UniProt A9CF11, F133A/N212D); test: in vitro FRET titration of affinity mutant FLIPsuc10μ; assay type: binding; conditions: for Δratio (change in ratio): in vitro, no binding to saturated binding
Protocol: as §3, §5

[10] = biological target: Agrobacterium tumefaciens AtThuE sensor FLIPsuc4μ variant D115E (FLIPsuc3m, FLIPsucD115E) (Agrobacterium fabrum, UniProt A9CF11, D135E/N212D); test: in vitro FRET titration of affinity mutant FLIPsuc3m; assay type: binding; conditions: for Δratio (delta ratio): no binding to saturated binding
Protocol: as §3, §5

[11] = biological target: Agrobacterium tumefaciens AtThuE sensor FLIPsuc4μ variant D115A (FLIPsuc1m, FLIPsucD115A) (Agrobacterium fabrum, UniProt A9CF11, D135A/N212D); test: in vitro FRET titration of affinity mutant FLIPsuc1m; assay type: binding; conditions: for Δratio (delta ratio): no binding to saturated binding
Protocol: as §3, §5

[12] = biological target: Alicyclobacillus acidocaldarius maltose binding protein (AaMalE); conditions: cited from earlier work
[13] = 20 mM MOPS pH 7, FRET titration

OC[C@H]1O[C@H](O[C@H]2[C@H](O)[C@@H](O)[C@@H](O[C@H]3[C@H](O)[C@@H](O)[C@@H](O[C@H]4[C@H](O)[C@@H](O)C(O)O[C@@H]4CO)O[C@@H]3CO)O[C@@H]2CO)[C@H](O)[C@@H](O)[C@@H]1O (some centres unmarked) [maltotetraose]
inhibition of uptake of radiolabeled maltose [1]: inhibited

cyclodextrins
inhibition of uptake of radiolabeled maltose [1]: inhibited

OC[C@H]1OC(O)[C@H](O)[C@@H](O)[C@H]1O (some centres unmarked) [galactose]
recognition (binding) [2]: not recognized

OC[C@H]1O[C@@](CO)(O[C@H]2O[C@H](CO)[C@@H](O)[C@H](O)[C@H]2O)[C@@H](O)[C@@H]1O [sucrose]
change in ratio upon addition of sucrose [3]: no longer seen | Kd [4]: 3.7 µM | change in FRET on titration ([2]; concentration-dependent, FIG. 1B): concentration-dependent decrease in FRET | Δratio (maximum ratio change) ([2]; listed as Sucrose): 0.18 | Hill coefficient ([2]; sucrose titration, pH 7): 1.04 | Kd [5, 13]: 0.088 mM | Δratio [5]: 0.29 | affinity for sucrose relative to maltose ([5]; ratio of Kd): three times higher than for maltose | ratio change relative to original construct (FLIPsucW283A) [6]: 3 fold | Kd [7]: 46.2 mM | Δratio [7]: 0.4 | Kd [8]: 14600 µM | Δratio [8]: 0.14 | Kd [9]: 10 µM | Δratio (change in ratio) [9]: 0.1-0.15 | Δratio (change in ratio) ([9]; listed as Sucrose): 0.12 | Kd [10, 13]: 2.87 mM | Kd ([10]; FRET titration): 2.9 mM | Δratio (delta ratio) [10]: ~0.4 | Δratio (delta ratio) ([10]; listed as Sucrose): 0.36 | Kd [11, 13]: 1.35 mM | Kd ([11]; FRET titration): 1.4 mM | Δratio (delta ratio) [11]: at least 0.6 | Δratio (delta ratio) ([11]; listed as Sucrose): 0.68

C[C@H]1O[C@H](O[C@H]2[C@H](O)[C@@H](O)[C@@H](O[C@H]3[C@H](O)[C@@H](O)C(O)O[C@@H]3CO)O[C@@H]2CO)[C@H](O)[C@@H](O)[C@@H]1N[C@H]1C=C(CO)[C@@H](O)[C@H](O)[C@H]1O (some centres unmarked) [acarbose]
inhibition of uptake of radiolabeled maltose [1]: inhibited

OC[C@H]1OC(O)(CO)[C@@H](O[C@H]2O[C@H](CO)[C@@H](O)[C@H](O)[C@H]2O)[C@@H]1O (some centres unmarked) [turanose]
binding (extent relative to sucrose) [2]: to the same extent or better than sucrose

OC[C@H]1O[C@@H](O[C@H]2[C@H](O)[C@@H](O)C(O)O[C@@H]2CO)[C@H](O)[C@@H](O)[C@@H]1O (some centres unmarked) [cellobiose]
recognition (binding) [2]: not recognized

OCC1(O)OC[C@@H](O)[C@@H](O)[C@@H]1O (some centres unmarked) [Fructose]
recognition (binding) [2]: not recognized

OC[C@H]1O[C@H](O[C@H]2O[C@H](CO)[C@@H](O)[C@H](O)[C@H]2O)[C@H](O)[C@@H](O)[C@@H]1O [trehalose]
binding (extent relative to sucrose) [2]: to the same extent or better than sucrose

OC[C@H]1O[C@H](O[C@H]2[C@H](O)[C@@H](O)C(O)O[C@@H]2CO)[C@H](O)[C@@H](O)[C@@H]1O (some centres unmarked) [maltose]
Kd [4]: 0.23 µM | binding (extent relative to sucrose) [2]: to the same extent or better than sucrose | affinity relative to that for sucrose [2]: higher | Δratio (maximum ratio change) [2]: 0.21 | Kd [5, 13]: 0.265 mM | Δratio [5]: 0.25 | Kd [7]: 26.5 mM | Δratio [7]: 0.42 | Kd [8]: 56 µM | Δratio [8]: 0.14 | Kd [9]: 0.12 µM | Δratio (change in ratio) [9]: 0.12 | Kd [10, 13]: 1.53 mM | Kd ([10]; FRET titration): 1.5 mM | Δratio (delta ratio) [10]: 0.39 | Kd [11, 13]: 0.051 mM | Δratio (delta ratio) [11]: 0.37 | Kd [12]: 1500 nM

OC[C@H]1OC(O)[C@H](O)[C@@H](O)[C@@H]1O (some centres unmarked) [glucose]
Kd [4]: 27 µM | binding (extent relative to sucrose) [2]: to lesser extent | affinity relative to that for sucrose [2]: in the same range as that for sucrose | Δratio (maximum ratio change) [2]: 0.18 | Kd [5, 13]: 7.21 mM | Kd ([5]; FRET titration): 7.2 mM | Δratio [5]: 0.21 | Kd [8]: 554 µM | Δratio [8]: 0.07 | Kd [9]: 106 µM | Δratio (change in ratio) [9]: 0.12 | Kd [10, 13]: 9.11 mM | Kd ([10]; FRET titration): 9.1 mM | Δratio (delta ratio) [10]: 0.44 | Kd [11, 13]: 16.2 mM | Kd ([11]; FRET titration): 16 mM | Δratio (delta ratio) [11]: 0.50

OC[C@H]1O[C@H](OC[C@H]2OC(O)(CO)[C@@H](O)[C@@H]2O)[C@H](O)[C@@H](O)[C@@H]1O (some centres unmarked) [palatinose]
binding (extent relative to sucrose) [2]: to lesser extent

— patent publication US8173863B2, “Sucrose biosensors and methods of using the same” (Carnegie Institution of Washington, priority 2005, dated 2012)
